The text below walks through data of publication PMC2848298 (Bioorganic & medicinal chemistry letters, 2010).

Like-named read-outs stand apart in the source and are kept apart here.

The target in data set [1] is T1, ABCG2 (Homo sapiens, UniProt Q9UNQ0).
T1 sequence (Q9UNQ0 1-655): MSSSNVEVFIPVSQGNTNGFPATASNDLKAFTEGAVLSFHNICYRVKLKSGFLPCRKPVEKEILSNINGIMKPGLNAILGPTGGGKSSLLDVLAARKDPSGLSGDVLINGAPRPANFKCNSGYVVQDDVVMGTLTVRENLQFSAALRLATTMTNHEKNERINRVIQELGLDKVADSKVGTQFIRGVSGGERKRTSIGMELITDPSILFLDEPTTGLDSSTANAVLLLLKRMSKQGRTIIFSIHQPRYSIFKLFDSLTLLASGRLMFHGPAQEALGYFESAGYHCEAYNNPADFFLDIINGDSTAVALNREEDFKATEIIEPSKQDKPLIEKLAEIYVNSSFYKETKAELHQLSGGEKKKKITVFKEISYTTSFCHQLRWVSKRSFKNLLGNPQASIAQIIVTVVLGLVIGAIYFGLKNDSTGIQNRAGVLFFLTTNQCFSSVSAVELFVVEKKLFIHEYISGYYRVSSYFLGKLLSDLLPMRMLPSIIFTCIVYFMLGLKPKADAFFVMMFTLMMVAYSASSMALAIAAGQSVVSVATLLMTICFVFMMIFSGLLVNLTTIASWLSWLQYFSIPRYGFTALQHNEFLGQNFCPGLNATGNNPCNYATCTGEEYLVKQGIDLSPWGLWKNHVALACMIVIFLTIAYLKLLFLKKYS

The subject of data set [2] is P-glycoprotein (P-gp). The conditions noted are these: cited from earlier work.
Data set [3] deals with T1, ABCG2. Kind of data set: Cellular accumulation of the ABCG2 substrate pheophorbide-a. The conditions noted are these: PhA accumulation assay.

2-methoxy-p-coumaric acid [compound 8]: the “ABCG2 inhibitory activity (in words)” value in data set [1] was “inactive”.

With `CO/C(=C\c1ccc(O)cc1)C(=O)N/C=C/c1cc(Br)c(OC)c(Br)c1` [botryllamide A, reference compound], in data set [2], the “Inhibition of export of rhodamine by P-gp” value was “inhibited the export of rhodamine”.

In the case of `CO/C(=C\c1ccc(O)cc1)C(=O)N/C=C/c1cc(Br)c(O)c(Br)c1` [botryllamide G], the “Inhibition of efflux of rhodamine out of P-gp-overexpressing cells” value in data set [2] (at 50 μM) was “not the efflux of rhodamine”.

Take `CO/C(=C\c1ccc(O)cc1)C(=O)NCC(O)c1ccc(O)cc1` (centres unmarked) [compound 9]: the “ABCG2 inhibitory activity (in words)” value in data set [3] was “inactive”.

Take `O=C(/C=C/c1ccc(O)cc1)N/C=C/c1ccc(O)cc1` [compound 18]: the “ABCG2 inhibitory activity (in words)” value in data set [3] (at 100 μM) was “inactive”.

As to `CO/C(=C\c1ccc(O)c(O)c1)C(=O)N/C=C/c1ccc(O)cc1` [compound 21], in data set [3], the “ABCG2 inhibitory activity (in words)” value was “retained inhibitory activity”.

For `CO/C(=C\c1cc(Br)c(O)c(Br)c1)C(=O)N/C=C/c1ccc(O)cc1` [compound 22], in data set [3], the “ABCG2 inhibitory activity (in words)” value is “observed inhibitory activity”.

Turning to `CO/C(=C\c1cc(Br)c(O)c(Br)c1)C(=O)N/C=C/c1ccc(OC(C)=O)cc1` [compound 23], the “ABCG2 inhibitory activity (in words)” value in data set [3] is “observed inhibitory activity”.
